Entries after “also recorded” stand apart in the source; their conditions may differ.
Columns and labels:
[1] = Absorption and fluorescence spectra at different pH solutions, pKa; assay type: physicochemical; settings: in a mixture of DMSO: acetonitrile
[2] = Solubility in aqueous medium / pH solutions; assay type: physicochemical
BV2 microglia [3] = experiment: LDH cytotoxicity assay on BV2 microglia; assay type: cell-based, mouse; settings: BV2
Method: (§1) The dried fluorescent probes powders were resuspended in cell grade DMSO to prepare 5 mM stock solutions. This stock was used to make a 1, 5, or 10 μM dilution of the probe in cell culture media. The diluted probe solutions were filtered through 0.22 µm filters before adding to the cells.
The cytotoxicity of the fluorescent probes was determined using the Invitrogen™ CyQUANT™ LDH Cytotoxicity Assay kit which measures the release of Lactate dehydrogenase (LDH) from the dead and dying cells. The assay was performed per the manufacturer's protocol. Briefly, BV2 cells (5000 cells/100 μL/well) were seeded in a 96 well plate and cultured for 24 hours at 37° C. in a 5% CO2 incubator. After 24 hours, the media was removed, and the cells were treated with 1, 5, or 10 μM of the probes for 2 or 24 hours of incubation. Three additional wells were treated with the given lysis buffer for 45 minutes (positive control). After the corresponding incubation period, the total LDH release was measured using a fluorescent plate reader. The cells without any probe treatment correspond to spontaneous LDH release and were taken as negative control and the cells treated with the lysis buffer correspond to maximum LDH release. The percentage cytotoxicity of the probes was determined as follows: […]

BV2 microglia [4] = experiment: MTT assay, metabolic activity of BV2 microglia; assay type: cell-based, mouse; settings: 24 hours
Method: as §1
Murine microglial BV2 cells (10,000 cells/well) were seeded in a 96 well plate and cultured for 24 hours at 37° C. in a 5% CO2 incubator. Next day, the media was aspirated, and the cells were rinsed twice with PBS (pH 7.4) followed by treatment with 1, 5, or 10 μM of the probe solution made in DMSO (final DMSO concentration=0.05%) for 24 hours in the incubator. Next, the media was aspirated and 20 μL of 5 mg/mL 3-(4,5dimethylthiazol-2-yl)-2,5-diphenyltetrazolium bromide (MTT) solution was added to the cells and then incubated for three hours. The MTT solution was then removed and 100 μL DMSO was added to dissolve the violet formazan crystals. The plate was shaken for 5 minutes using an orbital shaker. The absorbance value at 450 nm was recorded and the percent cell metabolic activity was calculated as the ratio of sample absorbance to control absorbance.

primary mouse microglia [5] = experiment: Confocal imaging, localization of probes in primary microglia; assay type: cell-based; settings: 10 μM probe 2 hours, co-staining LysoTracker / MitoLite / DAPI
Method: A detailed protocol for the isolation and culture of primary microglia from adult mouse brains is previously described^2. Briefly, CD11^+ primary microglia were isolated from adult C57BL/6 mice aged 5-7 months of age (both male and female sexes) and cultured as follows. Mice were euthanized with CO2 following the PACUC guidelines, perfused brains were removed and cut into small pieces before homogenizing them in DPBS++with 0.4% DNase-I on the tissue dissociator at 37° C. After filtering the cells through a 70 μm filter, myelin was removed two times, first using gradient centrifugation with Percoll PLUS reagent followed by the use of myelin removal beads on the magnetic column separators. After myelin removal, CD11^+ cells were selected from the single cell suspension using the CD11^+ beads as per the manufacturer's instructions. The CD11^+ cells were finally resuspended in microglia growth media, further diluted in TIC (TGF-β, IL-34, and cholesterol containing) media containing 2% FBS before seeding 0.1×10^6 cells/500 μL/well of a 24-well plate. The cells were maintained at 37° C. and 10% CO2 with half-media change every other day until the day of compound treatment (around 12-14 div). For confocal imaging experiments, around 50,000 cells/2 mL cells were sub-cultured at the center of 35 mm glass-bottom imaging dishes (FluoroDish™ #FD35).
The localization of the fluorescent probes was visualized using confocal microscopy. The cells were incubated with 10 μM probe for 2 hours and then the media was aspirated. The cells were then incubated with 100 nM LysoTracker (1 mM stock from Thermo #L7528) or with 0.5x MitoLite (1000-fold dilution from 500x stock of AAT Bioquest #22678) for 1.5 hours. The media was aspirated, and the cells were fixed with 4% paraformaldehyde for 10 mins followed by nuclear staining with 1 μM/mL DAPI for 5 mins. For BV2 microglia grown on glass coverslips, the coverslips were removed from the wells and transferred to glass slides with a drop of anti-fade reagent (Thermo Fisher Scientific #P36930). […]

BV2 microglia [6] = experiment: Cellular uptake of the fluorescent probes; assay type: in vitro ADME, mouse; settings: 2 hour treatment, 10 μM, BV2
Method: FIG. 7 describes percent uptake efficiency of the fluorescent probes in BV2 microglia. Cellular uptake of the probe at different concentrations after two hours of incubation. The % uptake efficiency was determined as the percentage of probe taken up by cells out of the total amount of probe in the initial incubation solution. Bars depict n=3 data with SD.
Cellular uptake of the florescent probes was determined in-vitro as following: BV2 cells (20,000 cells/well) were seeded in a 96 well plate and cultured overnight at 37° C. in a 5% CO2 incubator. Next day, the media was removed, and the cells were treated with 1, 5, or 10 μM of the probes for 2 hours. After incubation, the supernatant was collected, and the absorbance was recorded at the respective absorbance maxima of the probe. This was compared with absorbance of the probe in media without cells. The percent cellular uptake was calculated as percentage of […]:
% Uptake Efficiency=1-[Asupernatant×100/Aprobe]

primary mouse microglia [7] = experiment: Flow cytometry analysis of probe fluorescence in live cells; assay type: cell-based; settings: co-staining with MitoLite dye
From the text: FIGS. 3A-3E. […] Modal corresponds to a percentage of the maximum count. […] US Ctrl is unstained control. Gating strategy and flow plots with commercial dyes in supporting information.
A detailed protocol for the isolation and culture of primary microglia from adult mouse brains is previously described^2. Briefly, CD11^+ primary microglia were isolated from adult C57BL/6 mice aged 5-7 months of age (both male and female sexes) and cultured as follows. Mice were euthanized with CO2 following the PACUC guidelines, perfused brains were removed and cut into small pieces before homogenizing them in DPBS++with 0.4% DNase-I on the tissue dissociator at 37° C. After filtering the cells through a 70 μm filter, myelin was removed two times, first using gradient centrifugation with Percoll PLUS reagent followed by the use of myelin removal beads on the magnetic column separators. After myelin removal, CD11^+ cells were selected from the single cell suspension using the CD11^+ beads as per the manufacturer's instructions. […]
Primary mouse microglia were treated with 1, 5, or 10 μM fluorescent probes for 2 hours for the cells to uptake the probe. […] Around 10-20 thousand cells were gated from the live cells in order to analyze the cellular fluorescence signal corresponding to the LysoShine/Lysotracker or Mitoshine/MitoLite probes.

[8] = Absorption and fluorescence spectra at different pH solutions, pKa; assay type: physicochemical
Method: Spectrum recorded at room temperature in PBS buffer at varying pH with 1% (v/v) of DMSO, in all cases probe concentration=10 μM.
Next, we investigated the absorption and fluorescent properties of LysoShine 1, LysoShine 2, and MitoShine (FIG. 2). The LysoShine 1 in different pH solutions of phosphate buffer (1% DMSO in 1M PBS) has an absorption centered around 500 nm and emission maximum at 505 nm with 480 nm excitation. […] We tested the mitochondrial targeting property of MitoShine (max. absorption 505 nm, max. emission 535 nm, excitation 480 nm). […] We also tested the photophysical property of the important synthetic intermediate compound 10 (absorption maximum 505 nm, max, emission 510 nm at excitation 480 nm).

CCOC(=O)C1=C(C)C2=C(c3ccc(N(C)C)cc3)c3c(C)c(C(=O)OCC)c(C=Cc4ccc(O)c([N+](=O)[O-])c4)n3[B-](F)(F)[N+]2=C1C [Compound 6b, Diethyl (E)-10-(4-(Dimethylamino)phenyl)-5,5-difluoro-3-(4-hydroxy-3-nitrostyryl)-1,7,9-trimethyl-5H-414,514-dipyrrolo[1,2-c:2′,1′-f][1,3,2]diazaborinine-2,8-dicarboxylate]
pH at which significant fluorescence is shown [1]: less than 6 | solubility in aqueous medium ([2]; aqueous medium): sparingly soluble | solubility in DMSO: acetonitrile ([2]; mixture of DMSO: acetonitrile): soluble

CCOC(=O)C1=C(C)C2=C(c3ccc(NC(=O)C[P+](c4ccccc4)(c4ccccc4)c4ccccc4)cc3)c3c(C)c(C(=O)OCC)c(C)n3[B-](F)(F)[N+]2=C1C.[Br-] [MitoShine, (2-((4-(2,8-bis(ethoxycarbonyl)-5,5-difluoro-1,3,7,9-tetramethyl-5H-414,514-dipyrrolo[1,2-c:2′, 1′-f][1,3,2]diazaborinin-10-yl)phenyl)amino)-2-oxoethyl)triphenylphosphonium bromide]
cytotoxicity (LDH release) (BV2 microglia [3]; 2 hour, 1 and 5 μM): no cytotoxicity | cytotoxicity (LDH release) (BV2 microglia [3]; 24 hours, 10 μM and 5 μM): around 20% | cellular metabolic activity (BV2 microglia [4]; 1 μM): high cellular metabolic activity | cellular metabolic activity (BV2 microglia [4]; 5 μM or higher): 10% | localization of the probe within cell organelles (primary mouse microglia [5]): co-localized with MitoLite; also recorded: colocalization of MitoShine in both mitochondrial as well as in lysosomal organelles | uptake efficiency (BV2 microglia [6]): 30% | live cells positive for probe and MitoLite (primary mouse microglia [7]): around 87% | solubility upon addition of pH solutions ([2]; final DMSO concentration 1%): maintains its solubility | pKa ([8]; PBS buffer at varying pH, 1% (v/v) DMSO, probe 10 μM, room temperature): 4.4 | emission maximum ([8]; excitation 480 nm, pH solutions of phosphate buffer, 1% DMSO): 535 nm | pH at which high fluorescence is shown ([8]; pH buffer solutions): 4 | absorption maximum ([8]; pH solutions of phosphate buffer, 1% DMSO): 505 nm

Reference: US20240174697A1, “PH-ACTIVABLE FLUORESCENT PROBES FOR TARGETING CELL ORGANELLES” (Purdue Research Foundation, priority 2021, published 2024)
